Experimental data taken from PubChem BioAssay AID1918939 (Molecular Pharmacology Branch, DTP, NCI, 2023).

System: 653999-131-R-J2-PDC complex spheroid viability
Assay: Anticancer human tumor 653999-131-R-J2-PDC patient-derived lung adenocarcinoma cell line growth inhibition
Settings: for IC50: curve of first compound; for viability, T/C: stronger effect = lower value
Method in brief: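 Drug combinations with the LSD1 inhibitor iadademstat tested on tumor cells co-cultured as spheroids with endothelial cells and mesenchymal stem cells. Concentrations descended in half-log increments from clinical Cmax or 10 microM.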

[1] = second compound 0.1 µM, first compound 0.000316 µM
[2] = second compound 0.1 µM, first compound 0.001 µM
[3] = second compound 0.1 µM, first compound 0.00316 µM
[4] = second compound 0.1 µM, first compound 0.01 µM
[5] = second compound 0.1 µM, first compound 0.0316 µM
[6] = second compound 0.1 µM, first compound 0.1 µM
[7] = second compound 0.316 µM, first compound 0.000316 µM
[8] = second compound 0.316 µM, first compound 0.001 µM
[9] = second compound 0.316 µM, first compound 0.00316 µM
[10] = second compound 0.316 µM, first compound 0.01 µM
[11] = second compound 0.316 µM, first compound 0.0316 µM
[12] = second compound 0.316 µM, first compound 0.1 µM
[13] = second compound 1 µM, first compound 0.000316 µM
[14] = second compound 1 µM, first compound 0.001 µM
[15] = second compound 1 µM, first compound 0.00316 µM
[16] = second compound 1 µM, first compound 0.01 µM
[17] = second compound 1 µM, first compound 0.0316 µM
[18] = second compound 1 µM, first compound 0.1 µM
[19] = second compound 3.16 µM, first compound 0.000316 µM
[20] = second compound 3.16 µM, first compound 0.001 µM
[21] = second compound 3.16 µM, first compound 0.00316 µM
[22] = second compound 3.16 µM, first compound 0.01 µM
[23] = second compound 3.16 µM, first compound 0.0316 µM
[24] = second compound 3.16 µM, first compound 0.1 µM
[25] = second compound 10 µM, first compound 0.000316 µM
[26] = second compound 10 µM, first compound 0.001 µM
[27] = second compound 10 µM, first compound 0.00316 µM
[28] = second compound 10 µM, first compound 0.01 µM
[29] = second compound 10 µM, first compound 0.0316 µM
[30] = second compound 10 µM, first compound 0.1 µM
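Also: spheroids exposed to agents for seven days before readout.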

`CC(C)CC(NC(=O)C(Cc1ccccc1)NC(=O)c1cnccn1)B(O)O` (stereo not given) + NC1CC1c1ccc(-c2cccc(O)c2)cc1 gave an IC50 (second compound 0.1 µM) of 0.832 nM, an IC50 (second compound 0.316 µM) of 0.904 nM and an IC50 (second compound 1 µM) of 0.786 nM. The IC50 (second compound 3.16 µM) was 0.979 nM, the IC50 (second compound 10 µM) was 0.589 nM and the viability, T/C [1] was 122%. It also gave a viability, T/C [2] of 35.4%, a viability, T/C [3] of 12.9% and a viability, T/C [4] of 4.58%. For the same compound, the viability, T/C [5] was 1.38%, the viability, T/C [6] was 2.17% and the viability, T/C [7] was 110%. The viability, T/C [8] was 44.2%, the viability, T/C [9] was 11.4% and the viability, T/C [10] was 3.25%. For the same compound, the viability, T/C [11] was 1.54%, the viability, T/C [12] was 1.44% and the viability, T/C [13] was 109%. For the same compound, the viability, T/C [14] was 34%, the viability, T/C [15] was 11.6% and the viability, T/C [16] was 3.96%. For the same compound, the viability, T/C [17] was 0.99%, the viability, T/C [18] was 4.31% and the viability, T/C [19] was 103%. The viability, T/C [20] was 48.9%, the viability, T/C [21] was 16% and the viability, T/C [22] was 3.4%. For the same compound, the viability, T/C [23] was 1.41%, the viability, T/C [24] was 2.37% and the viability, T/C [25] was 74.4%. For the same compound, the viability, T/C [26] was 29.1%, the viability, T/C [27] was 9.61% and the viability, T/C [28] was 3.68%. The viability, T/C [29] was 1.33% and the viability, T/C [30] was 2.12%.

`CC(C)CC(NC(=O)CNC(=O)c1cc(Cl)ccc1Cl)B1OC(=O)CC(CC(=O)O)(C(=O)O)O1` (stereo not given) + NC1CC1c1ccc(-c2cccc(O)c2)cc1 gave an IC50 (second compound 0.1 µM) of 21.1 nM, an IC50 (second compound 0.316 µM) of 15.1 nM and an IC50 (second compound 1 µM) of 16.5 nM. The IC50 (second compound 3.16 µM) was 14.7 nM, the IC50 (second compound 10 µM) was 9.33 nM and the viability, T/C [1] was 88.6%. It also gave a viability, T/C [2] of 103%, a viability, T/C [3] of 109% and a viability, T/C [4] of 73%. For the same compound, the viability, T/C [5] was 38.5%, the viability, T/C [6] was 19.6% and the viability, T/C [7] was 97.4%. The viability, T/C [8] was 91.7%, the viability, T/C [9] was 117% and the viability, T/C [10] was 62.3%. The viability, T/C [11] was 38.2%, the viability, T/C [12] was 17.5% and the viability, T/C [13] was 77.9%. For the same compound, the viability, T/C [14] was 87%, the viability, T/C [15] was 123% and the viability, T/C [16] was 68.2%. For the same compound, the viability, T/C [17] was 33%, the viability, T/C [18] was 20.4% and the viability, T/C [19] was 92.8%. The viability, T/C [20] was 90.8%, the viability, T/C [21] was 116% and the viability, T/C [22] was 61.7%. The viability, T/C [23] was 38.7%, the viability, T/C [24] was 14.7% and the viability, T/C [25] was 80%. For the same compound, the viability, T/C [26] was 84.6%, the viability, T/C [27] was 113% and the viability, T/C [28] was 47.3%. It also gave a viability, T/C [29] of 23.9% and a viability, T/C [30] of 9.99%.

`COc1cc(Nc2ncc3c(n2)-c2ccc(Cl)cc2C(c2c(F)cccc2OC)=NC3)ccc1C(=O)O` + NC1CC1c1ccc(-c2cccc(O)c2)cc1 gave an IC50 (second compound 0.1 µM) of over 1000 nM, an IC50 (second compound 0.316 µM) of over 1000 nM and an IC50 (second compound 1 µM) of over 1000 nM. The IC50 (second compound 3.16 µM) was 819 nM, the IC50 (second compound 10 µM) was over 1000 nM and the viability, T/C [3] was 66.8%. The viability, T/C [4] was 75.8%, the viability, T/C [5] was 73.6% and the viability, T/C [6] was 62.1%. The viability, T/C (second compound 0.1 µM, first compound 0.316 µM) was 66.8%, the viability, T/C (second compound 0.1 µM, first compound 1 µM) was 64.8% and the viability, T/C [9] was 63.6%. The viability, T/C [10] was 70.6%, the viability, T/C [11] was 65.8% and the viability, T/C [12] was 57.2%. For the same compound, the viability, T/C (second compound 0.316 µM, first compound 0.316 µM) was 57.3%, the viability, T/C (second compound 0.316 µM, first compound 1 µM) was 53.9% and the viability, T/C [15] was 63.5%. It also gave a viability, T/C [16] of 70.8%, a viability, T/C [17] of 61.8% and a viability, T/C [18] of 59.8%. It also gave a viability, T/C (second compound 1 µM, first compound 0.316 µM) of 57.3%, a viability, T/C (second compound 1 µM, first compound 1 µM) of 53.7% and a viability, T/C [21] of 62.1%. It also gave a viability, T/C [22] of 58.9%, a viability, T/C [23] of 58% and a viability, T/C [24] of 54.7%. It also gave a viability, T/C (second compound 3.16 µM, first compound 0.316 µM) of 51.7%, a viability, T/C (second compound 3.16 µM, first compound 1 µM) of 49.6% and a viability, T/C [27] of 60.2%. For the same compound, the viability, T/C [28] was 66.3%, the viability, T/C [29] was 65.1% and the viability, T/C [30] was 55.5%. For the same compound, the viability, T/C (second compound 10 µM, first compound 0.316 µM) was 56.8% and the viability, T/C (second compound 10 µM, first compound 1 µM) was 53.5%.
